Data: US6495376B1, “Methods and compositions for regulating protein-protein interactions” (Beth Israel Deaconess Medical Center, priority 1999, dated 2002)
Several values for one entry are separate records, joined by “and”; a condition that tells them apart may be missing. Equal entries are not always repeated. Entries after “also recorded” stand apart in the source; their conditions may differ. Where two headings read alike, the source gives them in different places.

Assays:
[1] = biological target: WFYpSPFLE (Pintide); experiment: Fluorescence anisotropy (polarization) binding to fluorescein-labeled phosphorylated Pintide analogue; settings: for binding to Pintide (in words): fluorescence anisotropy
From the text: To determine the affinity of Pin1, and its WW or PPIase domain for phosphopeptides, peptides were labeled with fluorescein and their interactions with Pin1 measured using quantitative fluorescence anisotrophy. To prevent nonspecific labeling, a Pintide analogue (WFYpSPFLE) SEQ ID NO: 9 was used, which binds Pin1 with a high affinity based on the peptide library screen as described by (Lu, K. P. et al., U.S. Ser. No. 60/058,164 (1997), the teachings of which are incorporated herein in their entirety.
Pintide and its nonphosphorylated counterpart were synthesized and incubated with GST-Pin1 or the GST-WW-domain of Pin1 in a binding buffer, using established procedures (Shen, M. et al., Genes & Dev 12:706 (1998)). After a 1 hr incubation, mitotic HeLa cell extracts were added and subjected to GST pull down experiments, followed by immunoblotting analysis using the MPM-2 antibody. To obtain semi-quantitative data, films of immunoblots were scanned at the region of 55 kDa, the major Pin1-binding protein, and data analyzed using ImageQuan (ScanJet II CX). The peptide binding constants were measured using a fluorescence polarization assay (Jiskoot, W. et al., Anal Biochem 196:421 (1991)). Peptides were fluorescein labeled at the N-terminus using the Fluorescein Amine Labeling Kit (Pan Vera Corp.) and purified by TLC according to the manufacturer's […]. To prevent nonspecific labeling, a Pintide analogue (WFYpSPFLE) SEQ ID NO: 8 and the nonphosphorylated control were used. Various concentrations of Pin1 and its mutant proteins were incubated with 0.1 μM of the labeled peptides in a binding buffer containing 50 mM HEPES, pH 7.4, 100 mM NaCl, 2% glycerol. Fluorescence polarization values were obtained using a Pan Vera Beacon 2000 system, as described by the manufacturer.

[2] = biological target: WFYSPFLE; experiment: Fluorescence anisotropy binding to fluorescein-labeled nonphosphorylated control peptide; settings: for WFYSPFLE Kd: nonphosphorylated peptide
[3] = test system: mitotically phosphorylated Cdc25C; experiment: GST pull down of phosphorylated Cdc25C and CIP dephosphorylation; type: binding; settings: for protection of bound Cdc25C from dephosphorylation by CIP: Cdc25C precipitated on GST beads, then CIP; for binding to Cdc25C (in words): mitotic versus interphase phosphorylated form
From the text: To confirm that Nedd4 WW-domains bind a specific phosphoprotein in a phosphorylation-dependent manner interactions between Nedd4 WW-domains and Cdc25C were examined. To various degrees, all three Nedd4 WW-domains bound the mitotically phosphorylated form, but not the interphase phosphorylated form of both HeLa Cdc25C and in vitro synthesized Xenopus Cdc25C. […] The Kd values for the phosphopeptides were also lower than those for the Pro-rich peptide that was thought to be a Nedd4 WW-domain-binding site (Table 1) (Chen, H. I., et al., Proc. Natl. Acad. Sci. USA 92:7819 (1995); Staub, O., et al., EMBO J. 15:2371 (1996); Bedford, M. J., et al., EMBO J., 16:2376 (1997)).
Interactions between the WW-domain of Pin1 and specific phosphorylated ligands were examined. To detect phosphorylation-dependent interaction, Cdc25C, Plk1 and Pin1 ligands, were synthesized by in vitro transcription and translation in the presence of ^35S-Met and incubated with Xenopus interphase or mitotic extracts or mitotic extracts followed by treatment with calf intestine phosphatase (M+CIP). Protein complexes were separated on SDS-gels either directly (input) or first subjected to GST pull down with the N-terminal WW-domain (amino acids 1-54) or C-terminal PPIase domain (amino acids 47-163) or the entire Pin1 protein (Shen, M. et al., Genes & Dev 12:706 (1998)). The labeled protein-GST bead complexes were washed extensively and bound proteins analyzed by SDS-PAGE and autoradiography using standard techniques.
To determine whether WW-domain binding protects dephosphorylation of its targets ^35S labeled (His)6 epitope tagged Cdc25C was phosphorylated by mitotic extracts and precipitated by GST fusion protein beads or Ni-NTA beads. The isolated Cdc25C was then incubated with control buffer or CIP, followed by separation on SDS-containing gels and autoradiography.

[4] = test system: phosphorylated tau; experiment: GST-Pin1 pulldown of tau; type: binding; settings: for binding to Cdc2 phosphorylated tau: tau phosphorylated by Cdc2 in vitro
From the text: Pin1 binds and regulates the function of a defined subset of mitotic phosphoproteins by interacting with conserved phosphorylated Ser/Thr-Pro motifs that are also recognized by MPM-2, a mitosis-specific, phosphorylation-dependent monoclonal antibody (mAb) (Yaffe, M. B. et al., Science 278:1957-1960 (1997); Shen, M. et al., Genes Dev. 12:706-720 (1 998)). Tau is an MPM-2 antigen phosphorylated on multiple Ser/Thr-Pro motifs during mitosis (Illenberger, S. et al., Mol Biol Cell 9:1495-1512 (1998)). Experiments were undertaken to determine whether Pin1 binds tau. Tau isoform was either synthesized by in vitro transcription and translation in the presence of ^35S-Met or produced in bacteria as an N-terminal His-tagged protein, followed by purification using NTA-Ni columns (Yaffe, M. B. et al., Science 278:1957-1960 (1997); Shen, M. et al., Genes Dev. 12:706-720 (1998)). To generate interphase- and mitosis-specific phosphorylated form of tau, tau was incubated with Xenopus interphase and mitotic extracts, respectively (Shen, M. et al., Genes Dev. 12:706-720 (1998)). To prepare Cdc2 phosphorylated tau, purified recombinant tau was incubated with purified cyclin B/Cdc2 (UBI) for 6 to 12 hr at room temperature in a buffer containing 500 μM cold ATP, plus trace [^32P]-ATP in some experiments, (Vincent, I. et al., J Neurosci 17:3588-3598 (1997)).
Pin1 interactions with tau in AD brains were examined using a GST-Pin1 pulldown assay (Shen, M. et al., Genes Dev. 12:706-720 (1998)). Glutathione beads containing GST or GST-Pin1 were incubated with normal or AD brain extracts, or PHFs purified (Vincent, I. J. and Davies, P. Proc Natl Acad Sci USA 89:2878-2882 (1992)), and proteins associated with the beads were subjected to immunoblotting analysis using CP27, which recognizes all forms of tau. Recombinant and mutant Pin1 proteins were produced as N-terminal GST or His-tagged fusion proteins (Shen, M. et al., Genes Dev. 12:706-720 (1998)). PHFs were purified by immunoaffinity chromatography (Vincent, I. J. and Davies, P. Proc Natl Acad Sci USA 89:2878-2882 (1992)).
To determine whether Pin1 interacts with pT231-tau, GST-Pin1 beads were used to isolate tau from AD brain extracts or PHFs and T231 phosphorylation detected using CP9. Tau isolated by Pin1 beads was strongly immunoreactive with CP9. […] Thus, Pin1 binds pT231-tau through its WW-domain.

[5] = high affinity binding site, read-out: WFYpSPFLE Kd(μM) High affinity

phosphorylated tau, sequence (P10636 45-216 isoform P10636-2 limits assumed): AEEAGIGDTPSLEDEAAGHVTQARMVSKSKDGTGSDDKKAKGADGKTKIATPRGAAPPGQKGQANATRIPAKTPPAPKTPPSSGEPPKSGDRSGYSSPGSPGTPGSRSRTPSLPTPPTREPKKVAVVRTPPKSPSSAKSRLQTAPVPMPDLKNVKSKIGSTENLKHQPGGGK

With “Pin1 WW-domain: N-terminal WW-domain (amino acids 1-54) of Pin1 (MADEEKLPPGWEKRMSRSSGRVYYFNHITNASQWERPSGNSSSGGKNGQGEPAR; left off: a dimerising Fc or GST)” the Kd ([1]; GST-WW-domains, fluorescein-labeled peptide, average of three independent experiments, read-out: Kd (μM) Pintide WFYpSPFLE) was 1 µM, the “binding to Pintide (in words)” value [1] was “bound Pintide” and the Kd [1, 5] was 1.2 µM and 1 µM. For the same substance, the “Kd (μM) Pintide nonphosphorylated WFYSPFLE” value ([2]; GST-WW-domains, N.B., not binding detected) was “N.B”, the “WFYSPFLE Kd” value [2] was “No binding was detected; also recorded: Not binding” and the “protection of bound Cdc25C from dephosphorylation by CIP” value [3] was “CIP failed to dephosphorylate Cdc25C”. For the same substance, the “binding to Cdc25C (in words)” value [3] was “bound the phosphorylated Cdc25C in mitotic cell extracts, but not interphase extracts” and the “binding to Cdc2 phosphorylated tau” value [4] was “bound Cdc2 phosphorylated tau”.

For “Pin1: wild-type human prolyl isomerase (PPIase) Pin1 with N-terminal WW-domain; tag cleaved in Table 2”, the “binding to Pintide (in words)” value [1] was “bound Pintide”, the Kd [1, 5] was 1.2 µM and the Kd ([1]; low affinity binding site, read-out: WFYpSPFLE Kd(μM) Low affinity) was 11 µM. The “WFYSPFLE Kd” value [2] was “No binding was detected; also recorded: Not binding”, the “protection of bound Cdc25C from dephosphorylation by CIP” value [3] was “CIP failed to dephosphorylate Cdc25C” and the “binding to Cdc25C (in words)” value [3] was “bound the phosphorylated Cdc25C in mitotic cell extracts, but not interphase extracts”. The “binding to tau of brain extracts” value ([4]; AD brain extracts, PHFs or age-matched normal brain extracts) was “did not bind tau in age-matched normal brain extracts”, the “binding to tau incubated with Xenopus extracts” value ([4]; interphase or mitotic extracts) was “did bind tau that was phosphorylated by mitotic extracts” and the “binding to Cdc2 phosphorylated tau” value [4] was “bound Cdc2 phosphorylated tau”.
